# Experimental data reported in US6372733B1, “Hexahydro-5-imino-1,4-1,4-thiazepine derivatives as inhibitors of nitric oxide synthases” (Merck & Co., Inc., priority 1995, dated 2002).
# Where a name gives a salt, the structure may show the parent alone. Read-outs that look alike come from different tables or passages of the source.
# How the values were obtained:
# Type in all cases: biochemical
# [1] = target: ecNOS (Homo sapiens, UniProt P29474); test: Assay Protocol for NOS Activity: formation of L-[3H]Citrulline from L-[3H]Arginine, ecNOS
# Procedure: (§1) NOS activity is measured as the formation of L-[2,3,4,5-^3H]Citrulline from L-[2,3,4,5-^3H]Arginine. The incubation buffer (100 uL) contained; 100 mM TES, pH 7.5, 5 μM FAD, 5 μM FMN, 10 μM BH4, 0.5 mM NADPH, 0.5 mM DTT, 0.5 mg/mL BSA, 2 mM CaC12, 10 ug/mL calmodulin (bovine), 1 μM L-Arg, 0.2 uCi L-[2,3,4,5-^3H]Arg, and the inhibitor in aqueous DMSO (max. 5%). The reaction is initiated by addition of enzyme. Incubations are performed at room temperature for 30 minutes and stopped by the addition of an equal volume of quenching buffer consisting of 200 mM sodium citrate, pH 2.2, 0.02% sodium azide. Reaction products are separated by passing through a cation exchange resin and quantitated as cpm by scintillation counting.
# [2] = target: ncNOS (Homo sapiens, UniProt P29475); test: Assay Protocol for NOS Activity: formation of L-[3H]Citrulline from L-[3H]Arginine, ncNOS
# Procedure: as §1
# [3] = target: iNOS (Homo sapiens, UniProt P35228); test: Assay Protocol for NOS Activity: formation of L-[3H]Citrulline from L-[3H]Arginine, iNOS
# Procedure: as §1
# [4] = 1 μM L-Arg, room temperature, 30 minutes, read-out: ecNOS (IC50)
# [5] = 1 μM L-Arg, room temperature, 30 minutes, read-out: ncNOS (IC50)
# [6] = 1 μM L-Arg, room temperature, 30 minutes, read-out: iNOS (IC50)
Compound,"IC50 [1, 4] [µM]","IC50 [2, 5] [µM]","IC50 [3, 6] [µM]",IC50 [1] [µM],IC50 [2] [µM],IC50 [3] [µM]
"CCCC1CSCCNC1=N (stereo not drawn) [Example 5, Hexahydro-5-imino-6-propyl-1,4-thiazepine Hydrochloride]",> 50,> 50,> 50,–,–,–
"NC1=NCCSCC1 [Example 2, Hexahydro-5-imino-1,4-thiazepine Hydrochloride]",> 10,< 10,< 10,–,–,–
"NC1=NCCNCC1 [Example 1, Hexahydro-5-imino-(1H-1,4-diazepine Dihydrochloride]",> 50,> 50,> 50,–,–,–
"CC(C)CC1CSCCNC1=N (stereo not drawn) [Example 10, Hexahydro-5-imino-6-(2-methyl-propyl)-1,4-thiazepine Hydrochloride]",> 50,> 50,< 50,–,–,–
"CCCCC1CSCCC(N)=N1 (stereo not drawn) [Example 15, Hexahydro-5-imino-3-butyl-1,4-thiazepine. Hydrochloride]",> 50,< 10,< 1,–,–,–
"CC(C)=CCC1CSCCC(=N)N1 (stereo not drawn) [Example 9, Hexahydro-5-imino-3-(3-methyl-2-n-butenyl)-1,4-thiazepine Hydrochloride]",> 50,< 50,< 1,–,–,–
"CC(C)CC1CSCCC(N)=N1 (stereo not drawn) [Example 11, Hexahydro-5-imino-3-(2-methyl-propyl)-1,4-thiazepine Hydrochloride]",> 50,< 10,< 1,–,–,–
"C=C(C)CC1CSCCC(=N)N1 (stereo not drawn) [Example 16, Hexahydro-5-imino-3-(2-methyl-3-propenyl)-1,4-thiazepine Hydrochloride.]",< 50,< 10,< 1,–,–,–
"CC1CN=C(N)CCS1 (stereo not drawn) [Example 7, Hexahydro-5-imino-2-methyl-1,4-thiazepine Hydrochloride]",< 10,< 1,< 10,–,–,–
"CN1CCN=C(N)CC1 [Example 20, Hexahydro-5-imino-1-methyl-1H-1,4-diazepine Hydrochloride.]",> 50,> 50,< 50,–,–,–
"NC1=NCCOCC1 [Example 3, Hexahydro-5-imino-1,4-oxazepine Hydrochloride.]",< 50,< 10,< 50,–,–,–
"CC(C)=CCC1CSCCNC1=N (stereo not drawn) [Example 8, Hexahydro-5-imino-6-(3-methyl-2-n-butenyl)-1,4-thiazepine Hydrochloride]",> 50,> 50,> 50,–,–,–
"CCC[C@@H]1CSCCC(=N)N1 [Example 19, Hexahydro-5-imino-3(R)-propyl-1,4-thiazepine Acetic Acid Salt]",–,–,–,< 50,< 10,< 10
"CC1CSCCC(N)=N1 (stereo not drawn) [Example 13, Hexahydro-5-imino-3-methyl-1,4-thiazepine Hydrochloride]",< 10,< 10,< 1,–,–,–
"CCCC1CSCCC(N)=N1 (stereo not drawn) [Example 4, Hexahydro-5-imino-3-propyl-1,4-thiazepine Hydrochloride]",–,–,–,< 50,< 10,< 1
"CCC1CSCCC(N)=N1 (stereo not drawn) [Example 14, Hexahydro-5-imino-3-ethyl-1,4-thiazepine Hydrochloride]",< 50,< 10,< 1,–,–,–
"N=C1CCS[C@H]2CCCC[C@@H]2N1 (racemic) [Example 17, (±)-trans-Decahydro-4-imino-benzo[b]-1,4-thiazepine Acetic Acid Salt]",> 50,> 50,> 50,–,–,–
"CC1CSCCN=C1N (stereo not drawn) [Example 12, Hexahydro-5-imino-6-methyl-1,4-thiazepine Hydrochloride]",< 50,< 10,> 50,–,–,–
"CCC[C@H]1CSCCC(N)=N1 [Example 18, Hexahydro-5-imino-3(S)-propyl-1,4-thiazepine, Acetic Acid Salt]",–,–,–,< 10,< 1,< 1
"CC1CC(N)=NCCS1 (stereo not drawn) [Example 6, Hexahydro-5-imino-7-methyl-1,4-thiazepine Hydrochloride]",< 10,< 1,< 10,–,–,–
